Measured values taken from patent publication US20110021471A1, “REDUCING Abeta42 LEVELS AND Abeta AGGREGATION” (priority 2007, published 2011).
Read-outs that look alike come from different tables or passages of the source.

System: Human H4 neuroglioma cells expressing wild-type APP695 protein or CTF105
Experiment: Cell-based screens for amyloid-β modulation (H4 cells, ELISA)
Details: for EC50: Homo sapiens, cellular dose-response
Description: Photoaffinity labelling. All experiments used the following general protocol. […] Cell-based screens for amyloid-β modulation. […] Statistical analysis.

EC50 (read-out: EC50, lowering of Aβ40): 60.7 µM
EC50 (read-out: EC50, lowering of Aβ42): 13.7 µM
SMILES: O=C(O)c1cc(C=Cc2ccc(C=Cc3ccc(O)c(C(=O)O)c3)cc2)ccc1O [X-34, 1,4-bis(3-carboxy-4-hydroxyphenylethenyl)-benzene]
total amyloid-β amounts: did not decrease
Aβ42 levels (H4 cells expressing APP): decrease
